Like-named read-outs stand apart in the source and are kept apart here. Positions of bridges follow the written chain, without caps; N, C: chain ends. Non-standard residues stand in square brackets, D forms with d. Residues, ends and D or L forms follow the SMILES beside them.
Experiment: Biodistribution in B16/F1 melanoma-bearing C57 mice
Type: in vivo
Conditions: female, C57, mouse, iv, total radioactivity; for tissue uptake dose at 0.5 h / tissue uptake at 0.5 h: 0.5 h post-injection; for tissue uptake dose at 4 h / tissue uptake at 4 h: 4 h post-injection; for tissue uptake dose at 24 h / tissue uptake at 24 h: 24 h post-injection
Experimental: All the animal studies were conducted in compliance with Institutional Animal Care and Use Committee approval. The pharmacokinetics of ^99mTc-RGD-Lys-(Arg^11)CCMSH was determined in B16/F1 melanoma-bearing C57 female mice (Harlan, Indianapolis, Ind.). C57 mice were subcutaneously inoculated on the right flank with 1×10^6 B16/F1 cells. The weight of tumors reached approximately 0.2 g 10 days post cell inoculation. Each melanoma-bearing mouse was injected with 0.037 MBq of ^99mTc-RGD-Lys-(Arg^11)CCMSH via the tail vein. Groups of 5 mice were sacrificed at 0.5, 2, 4 and 24 h post-injection, and tumors and organs of interest were harvested, weighed and counted. Blood values were taken as 6.5% of the whole-body weight. The MC1 receptor specificity of the tumor uptake was determined at 2 h post-injection by co-injecting ^99mTc-RGD-Lys-(Arg^11)CCMSH with 10 μg (6.1 nmol) of unlabeled NDP-MSH, a linear α-MSH peptide analogue with picomolar affinity for the MC1 receptors present on murine melanoma cells. The co-injection of 3.5 μg (6.1 nmol) of RGD peptide was performed to determine the αvβ3 integrin specificity of the tumor uptake 2 h post-injection. Statistical analysis was performed using the Student's t-test for unpaired data.
All the animal studies were conducted in compliance with Institutional Animal Care and Use Committee approval. The pharmacokinetics of ^99mTc-RGD-Arg-(Arg^11)CCMSH was determined in B16/F1 melanoma-bearing C57 female mice (Harlan, Indianapolis, Ind.). C57 mice were subcutaneously inoculated on the right flank with 1×10^6 B16/F1 cells. The weight of tumors reached approximately 0.2 g 10 days post cell inoculation. Each melanoma-bearing mouse was injected with 0.037 MBq of ^99mTc-RGD-Arg-(Arg^11)CCMSH via the tail vein. Groups of 5 mice were sacrificed at 0.5, 2, 4 and 24 h post-injection, and tumors and organs of interest were harvested, weighed and counted. Blood values were taken as 6.5% of the whole-body weight. The MC1 receptor specificity of the tumor uptake was determined at 2 h post-injection by co-injecting ^99mTc-RGD-Arg-(Arg^11)CCMSH with 10 μg (6.1 nmol) of unlabeled NDP-MSH. The co-injection of 3.5 μg (6.1 nmol) of RGD peptide was performed to determine the αvβ3 integrin specificity of the tumor uptake at 2 h post-injection.

[1] = bladder, 0.037 MBq, read-out: Bladder, Percentage Injected Dose
[2] = blood, 0.037 MBq, read-out: Blood, Percentage Injected Dose/gram
[3] = bone, 0.037 MBq, read-out: Bone, Percentage Injected Dose/gram
[4] = brain, 0.037 MBq, read-out: Brain, Percentage Injected Dose/gram
[5] = heart, 0.037 MBq, read-out: Heart, Percentage Injected Dose/gram
[6] = intestines, 0.037 MBq, read-out: Intestines, Percentage Injected Dose
[7] = kidneys, 0.037 MBq, read-out: Kidneys, Percentage Injected Dose/gram
[8] = liver, 0.037 MBq, read-out: Liver, Percentage Injected Dose/gram
[9] = lung, 0.037 MBq, read-out: Lung, Percentage Injected Dose/gram
[10] = muscle, 0.037 MBq, read-out: Muscle, Percentage Injected Dose/gram

CC(C)[C@H](NC(=O)[C@@H]1CCCN1C(=O)[C@H](CCCNC(=N)N)NC(=O)[C@H](CS)NC(=O)[C@H](Cc1c[nH]c2ccccc12)NC(=O)[C@H](CCCNC(=N)N)NC(=O)[C@@H](Cc1ccccc1)NC(=O)[C@H](Cc1c[nH]cn1)NC(=O)[C@H](CCC(=O)O)NC(=O)[C@H](CS)NC(=O)[C@H](CS)NC(=O)[C@H](CCCCN)NC(=O)[C@@H]1CC(=O)N[C@@H](CCCNC(=N)N)C(=O)NCC(=O)N[C@@H](CC(=O)O)C(=O)N[C@H](Cc2ccc(O)cc2)C(=O)N1)C(N)=O [^99mTc-RGD-Lys-(Arg^11)CCMSH, metal not drawn] (RGD[dY]DKCCEH[dF]RWCRPV-NH2; lactam N-5)
dose excreted at 2 h (bladder (urine), 0.037 MBq, 2 h post-injection, read-out: Bladder, Percentage Injected Dose (cleared through the urinary system)): 62.3 ± 8.16%
tissue uptake dose at 0.5 h [1]: 46.9 ± 2.54 %ID
tissue uptake dose at 4 h [1]: 68.7 ± 2.06 %ID
tissue uptake dose at 24 h [1]: 78.2 ± 5.29 %ID
tissue uptake dose at 2 h (bladder, 2 h post-injection, NDP blockade (10 μg NDP-MSH co-injected), read-out: Bladder, Percentage Injected Dose): 75.9 ± 1.75 %ID
tissue uptake dose at 2 h (bladder, 2 h post-injection, RGD blockade (3.5 μg RGD co-injected), read-out: Bladder, Percentage Injected Dose): 75.1 ± 3.69 %ID
tissue uptake at 0.5 h [2]: 3.18 ± 0.51 %ID/g
tissue uptake at 2 h (blood, 0.037 MBq, 2 h post-injection, read-out: Blood, Percentage Injected Dose/gram): 0.96 ± 0.87 %ID/g
tissue uptake at 4 h [2]: 0.5 ± 0.27 %ID/g
tissue uptake at 24 h [2]: 0.11 ± 0.07 %ID/g
tissue uptake at 2 h (blood, 2 h post-injection, NDP blockade (10 μg NDP-MSH co-injected), read-out: Blood, Percentage Injected Dose/gram): 0.32 ± 0.34 %ID/g
tissue uptake at 2 h (blood, 2 h post-injection, RGD blockade (3.5 μg RGD co-injected), read-out: Blood, Percentage Injected Dose/gram): 0.53 ± 0.17 %ID/g
tissue uptake at 0.5 h [3]: 1.53 ± 0.75 %ID/g
tissue uptake at 2 h (bone, 0.037 MBq, 2 h post-injection, read-out: Bone, Percentage Injected Dose/gram): 1.05 ± 0.31 %ID/g
tissue uptake at 4 h [3]: 0.98 ± 0.67 %ID/g
tissue uptake at 24 h [3]: 0.71 ± 0.39 %ID/g
tissue uptake at 2 h (bone, 2 h post-injection, NDP blockade (10 μg NDP-MSH co-injected), read-out: Bone, Percentage Injected Dose/gram): 0.78 ± 0.65 %ID/g
tissue uptake at 2 h (bone, 2 h post-injection, RGD blockade (3.5 μg RGD co-injected), read-out: Bone, Percentage Injected Dose/gram): 0.37 ± 0.42 %ID/g
tissue uptake at 0.5 h [4]: 0.13 ± 0.03 %ID/g
tissue uptake at 2 h (brain, 0.037 MBq, 2 h post-injection, read-out: Brain, Percentage Injected Dose/gram): 0.12 ± 0.03 %ID/g
tissue uptake at 4 h [4]: 0.07 ± 0.04 %ID/g
tissue uptake at 24 h [4]: 0.06 ± 0.01 %ID/g
tissue uptake at 2 h (brain, 2 h post-injection, NDP blockade (10 μg NDP-MSH co-injected), read-out: Brain, Percentage Injected Dose/gram): 0.06 ± 0.02 %ID/g
tissue uptake at 2 h (brain, 2 h post-injection, RGD blockade (3.5 μg RGD co-injected), read-out: Brain, Percentage Injected Dose/gram): 0.03 ± 0.01 %ID/g
tissue uptake at 0.5 h [5]: 2.1 ± 0.41 %ID/g
tissue uptake at 2 h (heart, 0.037 MBq, 2 h post-injection, read-out: Heart, Percentage Injected Dose/gram): 0.85 ± 0.16 %ID/g
tissue uptake at 4 h [5]: 0.62 ± 0.31 %ID/g
tissue uptake at 24 h [5]: 0.39 ± 0.14 %ID/g
tissue uptake at 2 h (heart, with RGD peptide, 3.5 μg (6.1 nmol) co-injected, 2 h post-injection, RGD blockade (3.5 μg RGD co-injected), read-out: Heart, Percentage Injected Dose/gram): 0.37 ± 0.23 %ID/g
tissue uptake at 2 h (heart, with unlabeled NDP-MSH, 10 μg (6.1 nmol) co-injected, 2 h post-injection, NDP blockade (10 μg NDP-MSH co-injected), read-out: Heart, Percentage Injected Dose/gram): 0.47 ± 0.18 %ID/g
tissue uptake dose at 0.5 h [6]: 3.27 ± 0.13 %ID
tissue uptake dose at 2 h (intestines, 0.037 MBq, 2 h post-injection, read-out: Intestines, Percentage Injected Dose): 3.14 ± 1.2 %ID
tissue uptake dose at 4 h [6]: 2.95 ± 0.62 %ID
tissue uptake dose at 24 h [6]: 1.13 ± 0.18 %ID
tissue uptake dose at 2 h (intestines, 2 h post-injection, NDP blockade (10 μg NDP-MSH co-injected), read-out: Intestines, Percentage Injected Dose): 1.97 ± 0.17 %ID
tissue uptake dose at 2 h (intestines, 2 h post-injection, RGD blockade (3.5 μg RGD co-injected), read-out: Intestines, Percentage Injected Dose): 1.88 ± 0.16 %ID
tissue uptake at 0.5 h [7]: 69.4 ± 5.37 %ID/g
tissue uptake at 2 h (kidneys, 0.037 MBq, 2 h post-injection, read-out: Kidneys, Percentage Injected Dose/gram): 67.1 ± 8.79 %ID/g
tissue uptake at 4 h [7]: 68.3 ± 14.3 %ID/g
tissue uptake at 24 h [7]: 40.3 ± 10.8 %ID/g
tissue uptake at 2 h (kidneys, 2 h post-injection, NDP blockade (10 μg NDP-MSH co-injected), read-out: Kidneys, Percentage Injected Dose/gram): 59.5 ± 9.98 %ID/g
tissue uptake at 2 h (kidneys, 2 h post-injection, RGD blockade (3.5 μg RGD co-injected), read-out: Kidneys, Percentage Injected Dose/gram): 54.2 ± 15.1 %ID/g
tissue uptake at 0.5 h [8]: 4.02 ± 0.42 %ID/g
tissue uptake at 2 h (liver, 0.037 MBq, 2 h post-injection, read-out: Liver, Percentage Injected Dose/gram): 3.17 ± 1.43 %ID/g
tissue uptake at 4 h [8]: 2.91 ± 0.8 %ID/g
tissue uptake at 24 h [8]: 1.73 ± 0.33 %ID/g
tissue uptake at 2 h (liver, 2 h post-injection, NDP blockade (10 μg NDP-MSH co-injected), read-out: Liver, Percentage Injected Dose/gram): 2.89 ± 0.25 %ID/g
tissue uptake at 2 h (liver, 2 h post-injection, RGD blockade (3.5 μg RGD co-injected), read-out: Liver, Percentage Injected Dose/gram): 2.27 ± 0.23 %ID/g
tissue uptake at 0.5 h [9]: 5.31 ± 0.53 %ID/g
tissue uptake at 2 h (lung, 0.037 MBq, 2 h post-injection, read-out: Lung, Percentage Injected Dose/gram): 1.26 ± 0.32 %ID/g
tissue uptake at 4 h [9]: 1.07 ± 0.42 %ID/g
tissue uptake at 24 h [9]: 0.94 ± 0.45 %ID/g
tissue uptake at 2 h (lung, 2 h post-injection, NDP blockade (10 μg NDP-MSH co-injected), read-out: Lung, Percentage Injected Dose/gram): 1.31 ± 0.47 %ID/g
tissue uptake at 2 h (lung, 2 h post-injection, RGD blockade (3.5 μg RGD co-injected), read-out: Lung, Percentage Injected Dose/gram): 1.12 ± 0.1 %ID/g
tissue uptake at 0.5 h [10]: 0.38 ± 0.17 %ID/g
tissue uptake at 2 h (muscle, 0.037 MBq, 2 h post-injection, read-out: Muscle, Percentage Injected Dose/gram): 0.34 ± 0.29 %ID/g
tissue uptake at 4 h [10]: 0.13 ± 0.07 %ID/g
tissue uptake at 24 h [10]: 0.23 ± 0.19 %ID/g
tissue uptake at 2 h (muscle, 2 h post-injection, NDP blockade (10 μg NDP-MSH co-injected), read-out: Muscle, Percentage Injected Dose/gram): 0.21 ± 0.12 %ID/g
tissue uptake at 2 h (muscle, 2 h post-injection, RGD blockade (3.5 μg RGD co-injected), read-out: Muscle, Percentage Injected Dose/gram): 0.15 ± 0.06 %ID/g

From patent US9005575B2, “Arg-Gly-Asp-conjugated alpha-melanocyte stimulating hormone hybrid peptide for use in diagnosing and treating melanoma, including metastatic melanoma and methods related to same” (STC.UNM, priority 2009, dated 2015)
